Assay results taken from US6479548B2, “Substituted stilbenes as glucose uptake enhancers” (Telik, Inc., priority 2000, dated 2002).

What follows are molecules tested against T1, complete β-kinase domain of the human insulin receptor (CKD) (Homo sapiens, UniProt P06213) (assay: 32P-CKD autophosphorylation assay). Settings: 10 min; compound at 10 μM; phosphorylation of CKD expressed as % of the vehicle level; read-out: Activity (% vs. control).
T1 construct: The complete β-kinase domain of the human insulin receptor (CKD); made in house
Assay type: biochemical
Method: The complete β-kinase domain of the human insulin receptor (CKD) was expressed in, and purified from, baculovirus. CKD (4.0 μg/ml), in a solution of 29 mM HEPES (pH 7.6), 0.05% Triton X-100, 10 mM MgCl2, 2 mM MnCl2 (50 μl final volume), is combined with 50 μM ATP, and 5 μCi ^32P-ATP (3000 Ci/mmol).

T1 sequence (P06213 1023-1298 limits assumed): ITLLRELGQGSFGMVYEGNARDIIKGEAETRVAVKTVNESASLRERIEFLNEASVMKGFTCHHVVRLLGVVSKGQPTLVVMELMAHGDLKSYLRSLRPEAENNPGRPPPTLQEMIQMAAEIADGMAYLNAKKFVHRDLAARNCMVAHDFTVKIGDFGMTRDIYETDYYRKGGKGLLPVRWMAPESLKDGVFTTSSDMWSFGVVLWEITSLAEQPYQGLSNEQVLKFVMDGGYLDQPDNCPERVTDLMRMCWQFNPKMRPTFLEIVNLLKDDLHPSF

| SMILES | activity at 10 µM |
| --- | --- |
| COC(=O)c1ccc(N(C(C)=O)c2ccc(N(C(C)=O)c3ccc(/C=C/c4ccc(OC(C)(C)C)c(C(=O)O)c4)cc3)cc2)cc1 [Compound 49, 5-((1E)-2-{4-[(4-{[4-(methoxycarbonyl)phenyl]-N-methylcarbonylamino}phenyl)-N-methylcarbonylamino]phenyl}vinyl)-2-(tert-butoxy)benzoic acid] | 81% |
| COC(=O)c1ccc(N(C(C)=O)c2ccc(C(=O)Nc3ccc(/C=C/c4ccc(S(=O)(=O)O)cc4)cc3C(=O)OC)cc2)cc1 [Compound 36, 4-((1E)-2-{3-(methoxycarbonyl)-4-[(4-{[4-(methoxycarbonyl)phenyl]-N-methyl-carbonylamino}phenyl)carbonylamino]phenyl}vinyl)benzenesulfonic acid] | 171% |
| COC(=O)c1ccc(C(=O)N(C)c2ccc(C(=O)Nc3ccc(/C=C/c4cccc(F)c4)cc3C(=O)OC)cc2)cc1 [Compound 37, methyl 4-{N-[4-(N-{4-[(1E)-2-(3-fluorophenyl)vinyl]-2-(methoxycarbonyl)phenyl}-carbamoyl)phenyl]-N-methylcarbamoyl}benzoate] | 93% |
| COc1ccc(/C=C/c2ccc(N(Cc3ccc(C(=O)O)cc3)C(=O)c3ccc(N(C(C)=O)c4ccc(C(=O)O)cc4)cc3)c(C(=O)O)c2)cc1 [Compound 57, 5-[(1E)-2-(4-methoxyphenyl)vinyl]-2-(N-[(4-carboxyphenyl)methyl]{4-[(4-carboxy-phenyl)-N-methylcarbonylamino]phenyl}carbonylamino)benzoic acid] | 107% |
| COC(=O)c1ccc(C(=O)N(C)c2ccc(C(=O)Nc3ccc(/C=C/c4ccc(OC)cc4)cc3C(=O)OC)cc2)cc1 [Compound 29, methyl 4-{N-[4-(N-{4-[(1E)-2-(4-methoxyphenyl)vinyl]-2-(methoxycarbonyl)-phenyl}carbamoyl)phenyl]-N-methylcarbamoyl}benzoate] | 61% |
| COC(=O)c1ccc(N(C(C)=O)c2ccc(C(=O)Nc3ccc(/C=C/c4cccc(CC(=O)O)c4)cc3)cc2)cc1 [Compound 46, 2-[3-((1E)-2-{4-[(4-{[4-(methoxycarbonyl)phenyl]-N-methylcarbonylamino}-phenyl)carbonylamino]phenyl}vinyl)phenyl]acetic acid] | 91% |
| CC(=O)N(c1ccc(C(=O)O)cc1)c1ccc(C(=O)Nc2ccc(/C=C/c3ccccc3F)cc2C(=O)O)cc1 [Compound 33, 5-[(1E)-2-(2-fluorophenyl)vinyl]-2-({4-[(4-carboxyphenyl)-N-methylcarbonyl-amino]phenyl}carbonylamino)benzoic acid] | 78% |
| CC(=O)N(c1ccc(/C=C/c2ccc(OC(C)(C)C)c(C(=O)O)c2)cc1)c1ccc(N(C(C)=O)c2ccc(C(=O)O)cc2)cc1 [Compound 50, 5-{(1E)-2-[4-({4-[(4-carboxyphenyl)-N-methylcarbonylamino]phenyl}-N-methyl-carbonylamino)phenyl]vinyl}-2-(tert-butoxy)benzoic acid] | 105% |
| COC(=O)c1ccc(C(=O)N(C)c2ccc(C(=O)Nc3ccc(/C=C/c4ccc(F)cc4)cc3C(=O)OC)cc2)cc1 [Compound 34, methyl 4-{N-[4-(N-{4-[(1E)-2-(4-fluorophenyl)vinyl]-2-(methoxycarbonyl)phenyl}-carbamoyl)phenyl]-N-methylcarbamoyl}benzoate] | 88% |
| COC(=O)c1ccc(/C=C/c2ccc(NC(=O)c3ccc(N(C)C(=O)c4ccc(C(=O)OC)cc4)cc3)cc2)cc1 [Compound 44, methyl 4-(N-{4-[N-(4-{(1E)-2-[4-(methoxycarbonyl)phenyl]vinyl}phenyl)-carbamoyl]phenyl}-N-methylcarbamoyl)benzoate] | 97% |
| COC(=O)c1ccc(C(=O)N(C)c2ccc(C(=O)Nc3ccc(/C=C/c4ccccc4F)cc3C(=O)OC)cc2)cc1 [Compound 32, methyl 4-{N-[4-(N-{4-[(1E)-2-(2-fluorophenyl)vinyl]-2-(methoxycarbonyl)phenyl}-carbamoyl)phenyl]-N-methylcarbamoyl}benzoate] | 81% |
| CC(=O)N(c1ccc(C(=O)O)cc1)c1ccc(C(=O)Nc2ccc(/C=C/c3ccc(F)cc3)cc2C(=O)O)cc1 [Compound 35, 5-[(1E)-2-(4-fluorophenyl)vinyl]-2-({4-[(4-carboxyphenyl)-N-methylcarbonyl-amino]phenyl}carbonylamino)benzoic acid] | 177% |

Continued, values first:

| activity at 10 µM | SMILES |
| --- | --- |
| 117% | COc1cccc(C(=O)Nc2ccc(/C=C/c3ccccc3)cc2CC(=O)O)c1 [Compound 55, 2-{5-((1E)-2-phenylvinyl)-2-[(3-methoxyphenyl)carbonylamino]phenyl}acetic acid] |
| 121% | COc1ccc(/C=C/c2ccc(NC(=O)c3ccc(N(C(C)=O)c4ccc(C(=O)O)cc4)cc3)c(C(=O)O)c2)cc1 [Compound 31, 5-[(1E)-2-(4-methoxyphenyl)vinyl]-2-({4-[(4-carboxyphenyl)-N-methylcarbonyl-amino]phenyl}carbonylamino)benzoic acid] |
| 59% | CN(C(=O)c1ccccc1)c1ccc(/C=C/c2ccccc2)cc1C(=O)O [Compound 25, 5-((1E)-2-phenylvinyl)-2-(N-methylphenylcarbonylamino)benzoic acid] |
| 105% | COc1ccc(C(=O)Nc2ccc(/C=C/c3ccccc3)cc2C(=O)O)cc1OC [Compound 53, 5-((1E)-2-phenylvinyl)-2-[(3,4-dimethoxyphenyl)carbonylamino]benzoic acid] |
| 75% | COc1ccc(/C=C/c2ccc(N(C)C(=O)c3ccccc3)c(C(=O)O)c2)cc1 [Compound 28, 5-[(1E)-2-(4-methoxyphenyl)vinyl]-2-(N-methylphenylcarbonylamino)benzoic acid] |
| 105% | O=C(Nc1ccc(/C=C/c2ccccc2)c(C(=O)O)c1)c1ccccc1 [Compound 38, 2-((1E)-2-phenylvinyl)-5-(phenylcarbonylamino)benzoic acid] |
| 80% | O=C(O)c1ccc(COc2cc(OCc3ccc(C(=O)O)cc3)cc(C(=O)Nc3ccc(/C=C/c4ccccc4)cc3C(=O)O)c2)cc1 [Compound 60, 5-((1E)-2-phenylvinyl)-2-({3,5-bis[(4-carboxyphenyl)methoxy]phenyl}carbonyl-amino)benzoic acid] |
| 80% | O=C(Nc1ccc(/C=C/c2ccccc2)cc1C(=O)O)c1cc(O)cc(O)c1 [Compound 41, 5-((1E)-2-phenylvinyl)-2-[(3,5-dihydroxyphenyl)carbonylamino]benzoic acid] |
| 123% | COc1cccc(C(=O)Nc2ccc(/C=C/c3ccccc3)cc2C(=O)O)c1 [Compound 42, 5-((1E)-2-phenylvinyl)-2-[(3-methoxyphenyl)carbonylamino]benzoic acid] |
| 54% | COC(=O)c1cc(/C=C/c2ccccc2)ccc1NC(=O)c1ccc(OC)c(OC)c1 [Compound 52, methyl 5-((1E)-2-phenylvinyl)-2-[(3,4-dimethoxyphenyl)carbonylamino]benzoate] |
| 93% | COC(=O)c1ccc(N(C(C)=O)c2ccc(C(=O)Nc3ccc(/C=C/c4ccc(OC)cc4)cc3C(=O)O)cc2)cc1 [Compound 30, 5-[(1E)-2-(4-methoxyphenyl)vinyl]-2-[(4-{[4-(methoxycarbonyl)phenyl]-N-methyl-carbonylamino}phenyl)carbonylamino]benzoic acid] |
| 73% | COC(=O)c1cc(/C=C/c2ccccc2)ccc1NC(=O)c1ccccc1 [Compound 27, methyl 5-((1E)-2-phenylvinyl)-2-[phenylcarbonylamino)benzoate] |
| 107% | COc1cc(C(=O)Nc2ccc(/C=C/c3ccccc3)cc2C(=O)O)cc(OC)c1OC [Compound 26, 5-((1E)-2-phenylvinyl)-2-[(3,4,5-trimethoxyphenyl)carbonylamino]benzoic acid] |
| 94% | O=C(O)COc1cc(OCC(=O)O)cc(C(=O)Nc2ccc(/C=C/c3ccccc3)cc2C(=O)O)c1 [Compound 59, 5-((1E)-2-phenylvinyl)-2-{[3,5-bis(carboxymethoxy)phenyl]carbonylamino}benzoic acid] |
| 64% | COC(=O)c1ccc(N(C(C)=O)c2ccc(C(=O)Nc3ccc(/C=C/c4ccccc4)c(C(=O)O)c3)cc2)cc1 [Compound 39, 2-((1E)-2-phenylvinyl)-5-[(4-{[4-(methoxycarbonyl)phenyl]-N-methylcarbonyl-amino}phenyl)carbonylamino]benzoic acid] |

Same assay, conditions: compound at 10 μM; phosphorylation of CKD expressed as % of the vehicle level

| SMILES | Activity (% vs. control) |
| --- | --- |
| COc1ccc(/C=C/c2ccc(NC(=O)c3ccc4c(c3)OCO4)cc2)cc1 [Compound 56, N-{4-[(1E)-2-(4-methoxyphenyl)vinyl]phenyl}-2H-benzo[d]1,3-dioxolen-5-yl-carboxamide] | 51% |
